Experimental data reported in publication PMC5659893 (2017).

Assay: second and third wash supernates of 1×10^8 RBCs/mL
Settings: human, 37°C, up to 24 hours

not cleaved	Substance
more than 90% recovered after 24 hours	ILPWKWPWWPWRR-NH2
more than 90% recovered after 24 hours	RRGWALRLVLAY-NH2
